The source of these data is patent US6395732B1, “Pyrimidin-aminomethyl-pyridine derivatives, their preparation and their use in the control of helicobacter bacteria” (BYK Gulden Lomberg Chemische Fabrik GmbH, priority 1998, dated 2002).

One series has as its system Helicobacter pylori. The experiment in a line: Activity against Helicobacter pylori, agar method of Iwahi et al. (MIC 50). The series is classed as cell-based. The settings on record: Columbia agar (Oxoid), growth period of 4 days, approximate values; for MIC50: Helicobacter pylori, 96 h, read-out: Appr. MIC 50. The text has this:
The compounds of the formula I were investigated with respect to their activity against Helicobacter pylori following the method described by Tomoyuki Iwahi et al. (Antimicrobial Agents and Chemotherapy, 1991, 490-496) using Columbia agar (Oxoid) and a growth period of 4 days.

Molecule `Cc1nc(C)c(Cl)c(NCc2nccc(SCCCN3CCN(CC4CN(Cc5ccncc5)C(=O)O4)CC3)c2C)n1` (centres unmarked) [Compound 38, 5-[4-(3-{2-[(5-Chloro-2,6-dimethyl-pyrimidin-4-ylamino)-methyl]-3-methyl-pyridin-4-ylsulfanyl}-propyl)-piperazin-1-ylmethyl]-3-pyridin-4-ylmethyl-oxazolidin-2-one] came in with a melting point of 123 to 126 °C. The MIC50 in the series with Helicobacter pylori is not above 0.1 µg/mL.
In turn, `Cc1nc(C)c(Cl)c(NCc2nccc(SCC3CCCN(C)C3)c2C)n1` (centres unmarked) [Compound 44, (5-Chloro-2,6-dimethyl-pyrimidin-4-yl)-[3-methyl-4-(1-methyl-piperidin-3-ylmethylsulfanyl)-pyridin-2-ylmethyl]-amine] displayed a melting point of 148 to 149 °C. Further, the MIC50 in the series with Helicobacter pylori was not above 0.1 µg/mL.
As to `Cc1nc(C)c(Cl)c(NCc2nccc(SCCCCN3CCN(Cc4ccncc4)CC3)c2C)n1` [Compound 12, (5-Chloro-2,6-dimethylpyrimidin-4-yl)-{3-methyl-4-[4-(4-pyridin-4-ylmethylpiparazin-1-yl)butylsulfanyl]pyridin-2-ylmethyl}amine], the “Appr. MIC 50” value in the series on Helicobacter pylori was “≦0.1 μg/ml”.
The molecule `Cc1nc(C)c(Cl)c(NCc2nccc(SCCOCCn3c([N+](=O)[O-])cnc3C)c2C)n1` [Compound 57, (5-Chloro-2,6-dimethyl-pyrimidin-4-yl)-(3-methyl-4-{2-[2-(2-methyl-5-nitro-imidazol-1-yl)-ethoxy]-ethylsulfanyl}-pyridin-2-ylmethyl)-amine] came in with a melting point of 160 to 163 °C. In addition, the MIC50 in the series on Helicobacter pylori is not above 0.1 µg/mL.
For `Cc1nc(C)c(Cl)c(NCc2nccc(SCCOCCSCc3ccncc3)c2C)n1` [Compound 42, (5-Chloro-2,6-dimethyl-pyrimidin-4-yl)-(3-methyl-4-{2-[2-(pyridin-4-ylmethylsulfanyl)-ethoxy]-ethylsulfanyl}-pyridin-2-ylmethyl)-amine], in that order: 68 to 71 °C and not above 0.1 µg/mL.
Molecule `Cc1nc(C)c(Cl)c(NCc2nccc(SCCCSCCn3c([N+](=O)[O-])cnc3C)c2C)n1` [Compound 27, (5-Chloro-2,6-dimethylpyrimidin-4-yl)-(3-methyl-4-{3-[2-(2-methyl-5-nitroimidazol-1-yl)-ethylsulfanyl]propylsulfanyl}pyridin-2-ylmethyl)amine] returned a melting point of 145 to 147 °C. In addition, the MIC50 in the series with Helicobacter pylori was not above 0.1 µg/mL.
For `Cc1nc(C)c(Cl)c(NCc2nccc(SCCCN3CCN(Cc4ccncc4)CC3)c2C)n1.Cl` [Compound 23, (5-Chloro-2,6-dimethylpyrimidin-4-yl)-{3-methyl-4-[3-(4-pyridin-4-ylmethylpiperazin-1-yl)propylsulfanyl]pyridin-2-ylmethyl}amine hydrochloride] the same measures were 166 to 168 °C and not above 0.1 µg/mL.
For `Cc1nc(C)c(Cl)c(NCc2nccc(OCCCCSCc3ccccn3)c2C)n1` [Compound 51, (5-Chloro-2,6-dimethyl-pyrimidin-4-yl)-{3-methyl-4-[4-(pyridin-2-ylmethylsulfanyl)-butoxy]-pyridin-2-ylmethyl}-amine], in that order: 113 to 114 °C and not above 0.1 µg/mL.
Consider `Cc1nc(C)c(Cl)c(NCc2nccc(SCCCSc3ncccn3)c2C)n1` [Compound 10, (5-Chloro-2,6-dimethylpyrimidin-4-yl)-{3-methyl-4-[3-(pyrimidin-2-ylsulfanyl)propylsulfanyl]-pyridin-2-ylmethyl}amine], for which the melting point lay in the range of 158 to 159 °C. The MIC50 in the series with Helicobacter pylori is not above 0.1 µg/mL.
Take `Cc1nc(C)c(Cl)c(NCc2nccc(OCCSCc3ccncc3)c2C)n1` [Compound 30, (5-Chloro-2,6-dimethyl-pyrimidin-4-yl)-{3-methyl-4-[2-(pyridin-4-ylmethylsulfanyl)-ethoxy]-pyridin-2-ylmethyl}-amine]: the melting point fell in the range of 140 to 142 °C. Moreover, the MIC50 in the series on Helicobacter pylori was not above 0.1 µg/mL.
For `Cc1nc(C)c(Cl)c(NCc2nccc(SCCCSCc3cccnc3)c2C)n1` [Compound 47, (5-Chloro-2,6-dimethyl-pyrimidin-4-yl)-{3-methyl-4-[3-(pyridin-3-ylmethylsulfanyl)-propylsulfanyl]-pyridin-2-ylmethyl}-amine] the same measures were 104 to 105 °C and not above 0.1 µg/mL.
As for `Cc1nc(C)c(Cl)c(NCc2nccc(SCCCSCCO[C@@H]3O[C@H](CO)[C@@H](O)[C@H](O)[C@H]3O)c2C)n1` [Compound 39, 2-(3-{2-[(5-Chloro-2,6-dimethyl-pyrimidin-4-ylamino)-methyl]-3-methyl-pyridin-4-ylsulfanyl}-propylsulfanyl)-β-D-glucopyranoside], the “Appr. MIC 50” value with Helicobacter pylori is reported as “≦0.1 μg/ml”.
Regarding `Cc1nc(C)c(Cl)c(NCc2nccc(OCCCCSCCn3c([N+](=O)[O-])cnc3C)c2C)n1` [Compound 16, (5-Chloro-2,6-dimethylpyrimidin-4-yl)-(3-methyl-4-{4-[2-(2-methyl-5-nitroimidazol-1-yl)-ethylsulfanyl]butoxy}pyridin-2-ylmethyl]amine], the melting point was 114 to 117 °C. Further, in the series on Helicobacter pylori, the MIC50 was not above 0.1 µg/mL.
The molecule `Cc1nc(C)c(Cl)c(NCc2nccc(SCCCSCCO)c2C)n1` [Compound 31, 2-(3-{2-[(5-Chloro-2,6-dimethyl-pyrimidin-4-ylamino)-methyl]-3-methyl-pyridin-4-ylsulfanyl}-propylsulfanyl)-ethanol] showed a melting point of 134 to 137 °C. Also, in the series on Helicobacter pylori, the MIC50 is not above 0.1 µg/mL.
In turn, `Cc1nc(C)c(Cl)c(NCc2nccc(SCCCCSCc3ccncc3)c2C)n1` [Compound 20, (5-Chloro-2,6-dimethylpyrimidin-4-yl)-{3-methyl-4-[4-(pyridin-4-ylmethylsulfanyl)butylsulfanyl]pyridin-2-ylmethyl}amine] yielded a melting point of 104 to 106 °C. Further, the MIC50 in the series on Helicobacter pylori is not above 0.1 µg/mL.
For `Cc1nc(C)c(Cl)c(NCc2nccc(OCCSCCn3c([N+](=O)[O-])cnc3C)c2C)n1` [Compound 32, (5-Chloro-2,6-dimethyl-pyrimidin-4-yl)-(3-methyl-4-{2-[2-(2-methyl-5-nitro-imidazol-1-yl)-ethylsulfanyl]-ethoxy}-pyridin-2-ylmethyl)-amine] the same measures were 139 to 144 °C and not above 0.1 µg/mL.
Consider `Cc1c(SCCCN2CCN(Cc3ccncc3)CC2)ccnc1CNc1ncncc1Cl` [Compound 45, (5-Chloro-pyrimidin-4-yl)-{3-methyl-4-[3-(4-pyridin-4-ylmethyl-piperazin-1-yl)-propylsulfanyl]-pyridin-2-ylmethyl}-amine], for which the melting point lay in the range of 149 to 151 °C. Also, in the series on Helicobacter pylori, the MIC50 is not above 0.1 µg/mL.
Molecule `Cc1nc(C)c(Cl)c(NCc2nccc(N(C)CCN3CCc4ccccc4C3)c2Cl)n1` [Compound 1, (3-Chloro-4-{[2-(3,4-dihydro-1H-isoquinolin-2-yl)ethyl]methylamino}pyridin-2-ylmethyl)-(5-chloro-2,6-dimethylpyrimidin-4-yl)amine] displayed a melting point of 81 to 93 °C.
Regarding `Cc1nc(C)c(Cl)c(NCc2nccc(SCc3ccncc3)c2C)n1` [Compound 46, (5-Chloro-2,6-dimethyl-pyrimidin-4-yl)-[3-methyl-4-(pyridin-4-ylmethylsulfanyl)-pyridin-2-ylmethyl]-amine], the melting point was 188 to 191.9 °C. The MIC50 in the series on Helicobacter pylori was not above 0.1 µg/mL.
`Cc1nc(C)c(Cl)c(NCc2nccc(SCCCSCC3CCCN(C)C3)c2C)n1` (centres unmarked) [Compound 22, (5-Chloro-2,6-dimethylpyrimidin-4-yl)-{3-methyl-4-[3-(1-methylpiperidin-3-ylmethylsulfanyl)propylsulfanyl]pyridin-2-ylmethyl}amine] returned a melting point of 92 to 94 °C. In addition, the MIC50 in the series on Helicobacter pylori is not above 0.1 µg/mL.
Turning to `Cc1nc(C)c(Cl)c(NCc2nccc(OCCCCSCCO)c2C)n1` [Compound 36, 2-(4-{2-[(5-Chloro-2,6-dimethyl-pyrimidin-4-ylamino)-methyl]-3-methyl-pyridin-4-yloxy}-butylsulfanyl)-ethanol], the melting point is 116 to 118 °C. Moreover, in the series on Helicobacter pylori, the MIC50 was not above 0.1 µg/mL.
Molecule `Cc1nc(C)c(Cl)c(NCc2nccc(OCCCCN3CCN(Cc4ccncc4)CC3)c2C)n1` [Compound 11, (5-Chloro-2,6-dimethylpyrimidin-4-yl)-{3-methyl-4-[4-(4-pyridin-4-ylmethylpiperazin-1-yl)butoxy]pyridin-2-ylmethyl}amine] came in with a melting point of 157 to 158 °C.
In the case of `Cc1nc(C)c(Cl)c(NCCCSc2ccnc(CNc3nc(C)nc(C)c3Cl)c2C)n1` [Compound 7, {4-[3-(5-Chloro-2,6-dimethylpyrimidin-4-ylamino)propylsulfanyl]-3-methylpyridin-2-yl-methyl}-(5-chloro-2,6-dimethylpyrimidin-4-yl)amine], the MIC50 with Helicobacter pylori was not above 0.1 µg/mL.
For `Cc1nc(C)c(Cl)c(NCc2nccc(SCCCSc3ncc(-c4ccccc4)[nH]3)c2C)n1.Cl`, the melting point lay within 188 to 190 °C.
The molecule `Cc1nc(C)c(Cl)c(NCc2nccc(CNCCO)c2Cl)n1` [Compound 2, 2-({3-Chloro-2-[(5-chloro-2,6-dimethylpyrimidin-4-ylamino)methyl]pyridin-4-yl}methylamino)ethanol] came in with a melting point of 162 to 165 °C.
In turn, `Cc1nc(C)c(Cl)c(NCc2nccc(OCCCCN3CCNCC3)c2C)n1` [Compound 14, (5-Chloro-2,6-dimethylpyrimidin-4-yl)-[3-methyl-4-(4-piperazin-1-ylbutoxy)pyridin-2-ylmethyl]amine] had a melting point of 140 to 144 °C.
As for `Cc1nc(C)c(Cl)c(NCc2nccc(OCCCCSCc3cccnc3)c2C)n1` [Compound 50], in the series with Helicobacter pylori, the “Appr. MIC 50” value was “≦0.1 μg/ml”.
Still for that read-out and setting: as for `Cc1nc(C)c(Cl)c(NCc2nccc(OCCCCSc3ncccn3)c2C)n1` [Compound 6], the entry is “≦0.1 μg/ml”.
Consider `Cc1nc(C)c(Cl)c(NCc2nccc(OCCCCSCc3ccncc3)c2C)n1` [Compound 15, (5-Chloro-2,6-dimethylpyrimidin-4-yl)-{3-methyl-4-[4-(piridin-4-ylmethylsulfanyl)-butoxy]pyridin-2-ylmethyl}amine], for which, in the series with Helicobacter pylori, the “Appr. MIC 50” value is given as “≦0.1 μg/ml”.

What is called melting point is the temperature of the solid-liquid transition.
